From patent US7528138B2, “Pyrazolo[1,5-a]pyrimidines useful as inhibitors of protein kinases” (Vertex Pharmaceuticals Incorporated, priority 2004, dated 2009)
pKi: −log10 of the molar value.

Target: Aurora-B (Homo sapiens, UniProt Q96GD4)
Assay: Aurora B (Aurora-1) Inhibition Assay, 33P incorporation
Format: biochemical
Conditions: enzyme inhibition data (Ki), Table 11; read-out: AurB Ki
Experimental: An assay buffer solution is prepared which consists of 25 mM HEPES (pH 7.5), 10 mM MgCl2, 0.1% BSA and 10% glycerol. A 22 nM Aurora-B solution, also containing 1.7 mM DTT and 1.5 mM Kemptide (LRRASLG), is prepared in assay buffer. To 22 μL of the Aurora-B solution, in a 96-well plate, is added 2 μl of a compound stock solution in DMSO and the mixture is allowed to equilibrate for 10 minutes at 25° C. The enzyme reaction is initiated by the addition of 16 μl stock [γ-^33P]-ATP solution (˜20 nCi/μL) prepared in assay buffer, to a final assay concentration of 800 μM. The reaction is stopped after 3 hours by the addition of 16 μL 500 mM phosphoric acid and the levels of ^33P incorporation into the peptide substrate is determined by the following method.
A phosphocellulose 96-well plate (Millipore, Cat no. MAPHNOB50) is pre-treated with 100 μL of a 100 mM phosphoric acid prior to the addition of the enzyme reaction mixture (40 μL). The solution is left to soak on to the phosphocellulose membrane for 30 minutes and the plate subsequently is washed four times with 200 μL of a 100 mM phosphoric acid. To each well of the dry plate is added 30 μL of Optiphase ‘SuperMix’ liquid scintillation cocktail (Perkin Elmer) prior to scintillation counting (1450 Microbeta Liquid Scintillation Counter, Wallac). Levels of non-enzyme catalysed background radioactivity are determined by adding 16 μL of the 500 mM phosphoric acid to control wells, containing all assay components (which acts to denature the enzyme), prior to the addition of the [γ-^33P]-ATP solution. Levels of enzyme catalysed ^33P incorporation are calculated by subtracting mean background counts from those measured at each inhibitor concentration. For each Ki determination 8 data points, typically covering the concentration range 0-10 μM compound, are obtained in duplicate (DMSO stocks are prepared from an initial compound stock of 10 mM with subsequent 1:2.5 serial dilutions). Ki values are calculated from initial rate data by non-linear regression using the Prism software package (Prism 3.0, Graphpad Software, San Diego, Calif.).

Sequence of Aurora-B (Q96GD4 whole entry): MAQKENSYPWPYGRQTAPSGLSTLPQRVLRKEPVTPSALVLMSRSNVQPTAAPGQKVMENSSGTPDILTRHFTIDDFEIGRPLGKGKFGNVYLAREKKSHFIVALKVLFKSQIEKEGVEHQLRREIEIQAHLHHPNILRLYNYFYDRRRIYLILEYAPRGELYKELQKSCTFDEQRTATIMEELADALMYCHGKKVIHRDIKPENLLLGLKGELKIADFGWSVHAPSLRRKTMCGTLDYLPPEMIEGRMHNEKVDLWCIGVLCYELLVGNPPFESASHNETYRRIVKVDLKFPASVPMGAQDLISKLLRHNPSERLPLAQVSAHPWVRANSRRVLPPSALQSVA

SMILES | pKi
COc1ccccc1Nc1cc(-c2c(N)nn3cc(C)cnc23)ncn1 [Compound V-274] | 5.30 to 6.30
Cc1cnc2c(-c3cc(NC(C)C)ncn3)c(N)nn2c1 [Compound V-273] | 5.30 to 6.30
